Measurements reported in ChEMBL document CHEMBL4842346, “Improving the metabolic stability of antifungal compounds based on a scaffold hopping strategy: Design, synthesis, and structure-activity relationship studies of dihydrooxazole derivatives” (Eur J Med Chem, 2021).
Converted amounts (≈) assume the structure as drawn.

Columns and labels:
Format in all cases: functional
Pichia kudriavzevii = assay: Antifungal activity against Candida krusei GIM2.1 assessed as inhibition of fungal growth by NCCLS protocol based method
Candida albicans [1] = assay: Antifungal activity against Candida albicans SC5314 assessed as inhibition of fungal growth by NCCLS protocol based method
Aspergillus fumigatus = assay: Antifungal activity against Aspergillus fumigatus CGMCC3.7795 assessed as inhibition of fungal growth by NCCLS protocol based method
Candida parapsilosis = assay: Antifungal activity against Candida parapsilosis GIM2.190 assessed as inhibition of fungal growth by NCCLS protocol based method; settings: Lodderomyces parapsilosis
Candida albicans [2] = assay: Antifungal activity against Candida albicans GIM2.194 assessed as inhibition of fungal growth by NCCLS protocol based method
Candida tropicalis = assay: Antifungal activity against Candida tropicalis GIM2.183 assessed as inhibition of fungal growth by NCCLS protocol based method
Cryptococcus neoformans [3] = assay: Antifungal activity against Cryptococcus neoformans GIM2.209 assessed as inhibition of fungal growth by NCCLS protocol based method
Candida albicans [4] = assay: Antifungal activity against fluconazole and itraconazole resistant Candida albicans 17# assessed as inhibition of fungal growth by NCCLS protocol based method
Candida albicans [5] = assay: Antifungal activity against fluconazole resistant Candida albicans CaR assessed as inhibition of fungal growth by NCCLS protocol based method
Cryptococcus neoformans [6] = assay: Antifungal activity against Cryptococcus neoformans CGMCC2.3161 assessed as inhibition of fungal growth by NCCLS protocol based method
Candida albicans [7] = assay: Antifungal activity against Candida albicans CPCC400523 assessed as inhibition of fungal growth by NCCLS protocol based method

Row | SMILES | MIC (Pichia kudriavzevii) [µg/mL] | MIC (Candida albicans [1]) [µg/mL] | MIC (Aspergillus fumigatus) [µg/mL] | MIC (Candida parapsilosis) [µg/mL] | MIC (Candida albicans [2]) [µg/mL] | MIC (Candida tropicalis) [µg/mL] | MIC (Cryptococcus neoformans [3]) [µg/mL] | MIC (Candida albicans [4]) [µg/mL] | MIC (Candida albicans [5]) [µg/mL] | MIC (Cryptococcus neoformans [6]) [µg/mL] | MIC (Candida albicans [7]) [µg/mL]
1 | N#Cc1ccc(-c2ccc(C3=NC(Cn4cncn4)(c4ccccc4)CO3)cc2)cc1 (centres undefined) | > 64 | > 16 | > 64 | > 64 | > 16 | > 16 | – | – | – | – | –
2 | c1ccc(-c2ccc(C3=NC(Cn4ccnc4)C(c4ccccc4)O3)cc2)cc1 (centres undefined) | – | > 64 | > 64 | – | > 64 | > 64 | > 64 | – | – | – | –
3 | Fc1ccccc1-c1ccc(C2=NC(Cn3cncn3)(c3ccc(Cl)cc3)CO2)cc1 (centres undefined) | 0.25 (≈ 0.578 µM) | < 0.03 | > 64 | 4 (≈ 9.24 µM) | < 0.03 | 0.06 (≈ 0.139 µM) | – | > 64 | 0.25 (≈ 0.578 µM) | – | –
4 | FC(F)(F)Oc1ccc(-c2ccc(C3=NC(Cn4cncn4)(c4ccccc4)CO3)cc2)cc1 (centres undefined) | > 64 | > 16 | > 64 | > 64 | > 16 | > 16 | – | – | – | – | –
5 | Fc1cc(F)cc(C2(Cn3cncn3)COC(c3ccc(-c4ccccc4F)cc3)=N2)c1 (centres undefined) | > 64 | 0.06 (≈ 0.138 µM) | > 64 | > 64 | > 16 | > 16 | – | – | – | – | –
6 | c1ccc(-c2ccc(C3=NC(Cn4cnnn4)(c4ccccc4)CO3)cc2)cc1 (centres undefined) | > 64 | > 16 | > 64 | > 64 | > 16 | > 16 | – | – | – | – | –
7 | Fc1cccc(-c2ccc(C3=NC(Cn4cncn4)(c4ccccc4)CO3)cc2)c1 (centres undefined) | < 0.125 | < 0.03 | > 64 | 16 (≈ 40.2 µM) | < 0.03 | 0.06 (≈ 0.151 µM) | – | – | – | – | –
8 | O=C(c1ccc(-c2ccccc2)cc1)N1CCC[C@@H]1Cn1ccnc1 | – | > 64 | > 64 | – | – | – | – | – | – | > 64 | > 64
9 | Fc1ccccc1-c1ccc(C2=NC(Cn3cncn3)(c3ccccc3)CO2)cc1 (centres undefined) | 0.5 (≈ 1.25 µM) | < 0.03 | > 64 | 16 (≈ 40.2 µM) | < 0.03 | 0.06 (≈ 0.151 µM) | – | – | – | – | –
10 | Fc1ccc(-c2ccc(C3=NC(Cn4cncn4)(c4ccccc4)CO3)cc2)cc1 (centres undefined) | > 64 | 0.25 (≈ 0.627 µM) | > 64 | > 64 | > 16 | 8 (≈ 20.1 µM) | – | – | – | – | –
11 | FC(F)(F)c1ccc(-c2ccc(C3=NC(Cn4cncn4)(c4ccccc4)CO3)cc2)cc1 (centres undefined) | > 64 | > 16 | > 64 | > 64 | > 16 | > 16 | – | – | – | – | –
12 | c1ccc(-c2ccc(C3=NC(Cn4cncn4)(c4ccccc4)CO3)cc2)cc1 (centres undefined) | 0.25 (≈ 0.657 µM) | < 0.03 | 2 (≈ 5.26 µM) | 0.25 (≈ 0.657 µM) | < 0.03 | 0.06 (≈ 0.158 µM) | – | – | – | – | –
13 | CC(C)(O)C(Cn1ccnc1)NC(=O)c1ccc(-c2ccccc2)cc1 (centres undefined) | – | 8 (≈ 22.9 µM) | > 64 | – | – | – | – | – | – | > 64 | > 64
14 | Fc1cccc(-c2ccc(C3=NC(Cn4cncn4)(c4cccc(F)c4)CO3)cc2)c1 (centres undefined) | > 64 | 0.06 (≈ 0.144 µM) | > 64 | > 64 | 0.06 (≈ 0.144 µM) | 0.25 (≈ 0.6 µM) | – | > 64 | > 64 | – | –
15 | Fc1cccc(-c2ccc(C3=NC(Cn4cncn4)(c4cc(F)cc(F)c4)CO3)cc2)c1 (centres undefined) | > 64 | 0.06 (≈ 0.138 µM) | > 64 | > 64 | > 16 | > 16 | – | – | – | – | –
16 | c1ccc(-c2ccc(C3=N[C@H](Cn4ccnc4)CO3)cc2)cc1 | – | > 64 | > 64 | – | – | – | – | – | – | > 64 | > 64
17 | O=C(c1ccccc1)C1(Cn2ccnc2)COC(c2ccc(-c3ccccc3)cc2)=N1 (centres undefined) | – | 0.5 (≈ 1.23 µM) | > 64 | – | > 64 | > 64 | > 64 | – | – | – | –

Row | SMILES | MIC (Pichia kudriavzevii) [µg/mL] | MIC (Candida albicans [1]) [µg/mL] | MIC (Aspergillus fumigatus) [µg/mL] | MIC (Candida parapsilosis) [µg/mL] | MIC (Candida albicans [2]) [µg/mL] | MIC (Candida tropicalis) [µg/mL] | MIC (Cryptococcus neoformans [3]) [µg/mL] | MIC (Candida albicans [4]) [µg/mL] | MIC (Candida albicans [5]) [µg/mL] | MIC (Cryptococcus neoformans [6]) [µg/mL] | MIC (Candida albicans [7]) [µg/mL]
18 | C[C@H]1OC(c2ccc(-c3ccccc3)cc2)=N[C@H]1Cn1ccnc1 | – | > 64 | > 64 | – | > 64 | 4 (≈ 12.6 µM) | > 64 | – | – | – | –
19 | CN(C)C(=O)C(Cn1ccnc1)NC(=O)c1ccc(-c2ccccc2)cc1 (centres undefined) | – | 4 (≈ 11 µM) | > 64 | – | – | – | – | – | – | > 64 | > 64
20 | Fc1cc(F)cc(-c2ccc(C3=NC(Cn4cncn4)(c4ccccc4)CO3)cc2)c1 (centres undefined) | > 64 | > 16 | > 64 | > 64 | > 16 | > 16 | – | – | – | – | –
21 | O=C(NC(Cn1ccnc1)C1COC1)c1ccc(-c2ccccc2)cc1 (centres undefined) | – | 8 (≈ 23 µM) | > 64 | – | – | – | – | – | – | > 64 | > 64
22 | c1ccc(CC2(Cn3ccnc3)COC(c3ccc(-c4ccccc4)cc3)=N2)cc1 (centres undefined) | – | < 0.125 | > 64 | – | 0.5 (≈ 1.27 µM) | 0.5 (≈ 1.27 µM) | > 64 | – | – | – | –
23 | FC(F)(c1ccccc1)C1(Cn2ccnc2)COC(c2ccc(-c3ccccc3)cc2)=N1 (centres undefined) | – | < 0.125 | > 64 | – | > 64 | < 0.125 | > 64 | – | – | – | –
24 | CC1(Cn2ccnc2)COC(c2ccc(-c3ccccc3)cc2)=N1 (centres undefined) | – | 2 (≈ 6.3 µM) | 0.5 (≈ 1.58 µM) | – | 8 (≈ 25.2 µM) | 4 (≈ 12.6 µM) | > 64 | – | – | – | –
25 | O=C(c1ccc(-c2ccccc2)cc1)N1CCC[C@H]1Cn1ccnc1 | – | 16 (≈ 48.3 µM) | 8 (≈ 24.1 µM) | – | – | – | – | – | – | > 64 | 32 (≈ 96.6 µM)
26 | Fc1ccccc1-c1ccc(C2=NC(Cn3cncn3)(c3cccc(Cl)c3)CO2)cc1 (centres undefined) | > 64 | 0.06 (≈ 0.139 µM) | > 64 | > 64 | > 16 | > 16 | – | – | – | – | –
27 | Fc1cccc(C2(Cn3cncn3)COC(c3ccc(-c4ccccc4F)cc3)=N2)c1 (centres undefined) | > 64 | 0.06 (≈ 0.144 µM) | > 64 | > 64 | 0.06 (≈ 0.144 µM) | 0.25 (≈ 0.6 µM) | – | > 64 | > 64 | – | –
28 | Clc1ccccc1-c1ccc(C2=NC(Cn3cncn3)(c3ccccc3)CO2)cc1 (centres undefined) | > 64 | > 16 | > 64 | > 64 | > 16 | > 16 | – | – | – | – | –
29 | Clc1ccc(-c2ccc(C3=NC(Cn4cncn4)(c4ccccc4)CO3)cc2)cc1 (centres undefined) | > 64 | > 16 | > 64 | > 64 | > 16 | > 16 | – | – | – | – | –
30 | Clc1cccc(-c2ccc(C3=NC(Cn4cncn4)(c4ccccc4)CO3)cc2)c1 (centres undefined) | > 64 | > 16 | > 64 | > 64 | > 16 | > 16 | – | – | – | – | –
31 | Fc1cc(-c2ccccc2)ccc1C1=NC(Cn2cncn2)(c2ccccc2)CO1 (centres undefined) | > 64 | < 0.03 | > 64 | 16 (≈ 40.2 µM) | 0.06 (≈ 0.151 µM) | 0.06 (≈ 0.151 µM) | – | – | – | – | –
32 | CC(C)C1OC(c2ccc(-c3ccccc3)cc2)=NC1Cn1ccnc1 (centres undefined) | – | 0.5 (≈ 1.45 µM) | > 64 | – | > 64 | < 0.125 | > 64 | – | – | – | –
33 | Fc1cc(C2=NC(Cn3cncn3)(c3ccccc3)CO2)ccc1-c1ccccc1 (centres undefined) | 0.5 (≈ 1.25 µM) | < 0.03 | > 64 | 4 (≈ 10 µM) | < 0.03 | 0.06 (≈ 0.151 µM) | – | – | – | – | –
34 | CCC(C)n1ncn(-c2ccc(N3CCN(c4ccc(OCC5COC(Cn6cncn6)(c6ccc(Cl)cc6Cl)O5)cc4)CC3)cc2)c1=O (centres undefined) [ITRACONAZOLE] | < 0.125 | < 0.03 | < 0.125 | < 0.125 | < 0.125 | < 0.125 | < 0.125 | – | – | < 0.125 | < 0.125
